Some test systems named below: 786-0; BT-549; CAKI-1; CCRF-CEM; COLO 205; HCC 2998; HCT-116; HCT-15; HT-29; Hs-578T; IGROV-1; MOLT-4; NCI-H460; NCI-H522; OVCAR-3; OVCAR-8; RPMI-8226; SF-539; SNB-19; UACC-62.
Experiment in all cases: NCI anticancer screen, dose series, 48 h

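Values below derive from 48-hour exposures of cells grown in 96-well plates, with endpoints linearly interpolated between the two concentrations bracketing the appropriate inhibition level. Abbreviation: GI50, concentration required for 50% inhibition of growth.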 Active and inactive are the calls of the source. Cut-off read from the data, not from the text of the source: active = GI50 up to about 1.1 µM and inactive = higher.

Turning to `COC(=O)[C@H](CCSC)NC(=O)N[C@H](C)c1ccccc1`, the GI50 in the test on 786-0, in the test on BT-549, in the test with CAKI-1, in the test with CCRF-CEM, in the test on COLO 205 and in the test with HCC 2998 was > 100 µM (inactive) in each case. Besides, the GI50 with HCT-116 was > 100 µM (inactive); in the test with HCT-15 it was > 100 µM; in the test with HT-29, > 100 µM (inactive); in the test on Hs-578T it was > 100 µM (inactive); with IGROV-1, > 100 µM (inactive); in the test with MOLT-4, > 100 µM (inactive). For the same compound, the GI50 with NCI-H460 is > 100 µM (inactive); in the test on NCI-H522 it was 26.1 µM (inactive); in the test with OVCAR-3, > 100 µM (inactive); in the test with OVCAR-8, > 100 µM (inactive); in the test on RPMI-8226, > 100 µM (inactive); in the test with SF-539 it was > 100 µM (inactive). Further, the GI50 with SNB-19 and in the test with UACC-62 was > 100 µM (inactive) in each case.
Regarding `CC(C)(C)OC(=O)NC(Cc1ccc(OCc2ccccc2)cn1)C(=O)N1CCSCC1` (stereo not given), the GI50 with 786-0 is 57.9 µM (inactive); in the test with BT-549 it was 27.9 µM (inactive); with CAKI-1 it was 73.3 µM (inactive); in the test on CCRF-CEM, 29.9 µM (inactive); with COLO 205, 18.6 µM (inactive); in the test on HCC 2998, 57.8 µM (inactive). Besides, the GI50 with HCT-116 is 48.6 µM (inactive); in the test with HCT-15 it was 46.7 µM; in the test on HT-29, 32.7 µM (inactive); in the test with Hs-578T it was 77.3 µM (inactive); in the test on IGROV-1 it was 75.9 µM (inactive); in the test with MOLT-4 it was 22.9 µM (inactive). Besides, the GI50 is 38 µM (inactive) with NCI-H460; 32.9 µM (inactive) with NCI-H522; 62.2 µM (inactive) in the test with OVCAR-3; 40.1 µM (inactive) in the test with OVCAR-8; 21.7 µM (inactive) in the test with RPMI-8226; 49 µM (inactive) in the test on SF-539. Also, the GI50 in the test on SNB-19 was > 100 µM (inactive); in the test on UACC-62, 52.5 µM (inactive).
Turning to `O=C1Nc2ccc(Br)cc2/C1=C/C(=O)c1ccccc1`, the GI50 in the test on 786-0 is 1.67 µM (inactive); with BT-549 it was 8.59 µM (inactive); in the test on CAKI-1, 7.74 µM (inactive); with CCRF-CEM it was 1.9 µM (inactive); with COLO 205, 2.11 µM (inactive); with HCC 2998, 15.1 µM (inactive). Besides, the GI50 was 4.22 µM (inactive) in the test on HCT-116; 2.49 µM in the test with HCT-15; 1.59 µM (inactive) in the test with HT-29; 17.7 µM (inactive) in the test on Hs-578T; 3.67 µM (inactive) with IGROV-1; 2.64 µM (inactive) in the test on MOLT-4. Moreover, the GI50 is 18.2 µM (inactive) in the test on NCI-H460; 2.22 µM (inactive) with NCI-H522; 6.82 µM (inactive) with OVCAR-3; 2.1 µM (inactive) in the test on OVCAR-8; 2.46 µM (inactive) with RPMI-8226; 6.08 µM (inactive) with SF-539. Also, the values for the GI50 with SNB-19 and in the test on UACC-62 were 19.4 µM (inactive) and 16 µM (inactive), respectively.
As to `C=C1CCCC(C)(C)C1CCC1(C)CCC(C(C)C(=O)OC)OO1` (stereo not given), the GI50 was 0.36 µM (active) in the test with 786-0; 4.9 µM (inactive) in the test on BT-549; 0.383 µM (active) in the test on CAKI-1; 2.43 µM (inactive) in the test with CCRF-CEM; 4.92 µM (inactive) with COLO 205; 4.37 µM (inactive) in the test with HCC 2998. Besides, the GI50 was 8.45 µM (inactive) with HCT-116; 15.5 µM with HCT-15; 2.04 µM (inactive) with HT-29; 5.57 µM (inactive) with Hs-578T; 0.63 µM (active) in the test on IGROV-1; 8.11 µM (inactive) in the test with MOLT-4. Besides, the GI50 with NCI-H460 is 0.908 µM (active); in the test with NCI-H522, 3.34 µM (inactive); in the test on OVCAR-3 it was 21.8 µM (inactive); with OVCAR-8 it was 6.62 µM (inactive); in the test on RPMI-8226, 5.56 µM (inactive); with SF-539, 6.3 µM (inactive). The GI50 in the test with SNB-19 is 9.08 µM (inactive); with UACC-62 it was 5.62 µM (inactive).
As for `CC(C)(C)OC(=O)CN1C(=O)CC1CC(=O)c1ccccc1` (stereo not given), the GI50 in the test with 786-0 is 17.5 µM (inactive); in the test with BT-549, 18.2 µM (inactive); in the test with CAKI-1, 22.4 µM (inactive); in the test with COLO 205 it was 26.6 µM (inactive); with HCC 2998, 23.5 µM (inactive); in the test on HCT-116, 24.8 µM (inactive). Further, the GI50 with HCT-15 is 18.2 µM; in the test with HT-29, 17.2 µM (inactive); in the test on Hs-578T, 26.1 µM (inactive); in the test on IGROV-1 it was 18.3 µM (inactive); in the test on MOLT-4, 4.39 µM (inactive); in the test with NCI-H460, 26.7 µM (inactive). The GI50 was 15.5 µM (inactive) with NCI-H522; 18.4 µM (inactive) with OVCAR-3; 17.3 µM (inactive) in the test with OVCAR-8; 3.05 µM (inactive) in the test on RPMI-8226; 19.4 µM (inactive) with SF-539; 19.8 µM (inactive) with SNB-19. In addition, the GI50 in the test with UACC-62 is 19.3 µM (inactive).
In the case of `CC(C)NC(=O)OCc1c(COC(=O)NC(C)C)c(-c2cc[n+](COC(=O)CC(C)(C)C)cc2)n2c1CCC2`, the GI50 with 786-0, in the test with BT-549, in the test on CAKI-1, in the test on CCRF-CEM, in the test with COLO 205 and in the test on HCC 2998 was > 100 µM (inactive) in each case. For the same compound, the GI50 is > 100 µM with HCT-15; > 100 µM (inactive) in the test with Hs-578T; > 100 µM (inactive) with IGROV-1; > 100 µM (inactive) with MOLT-4; > 100 µM (inactive) in the test on NCI-H522; > 100 µM (inactive) in the test on OVCAR-3. For the same compound, the GI50 in the test on OVCAR-8, in the test with RPMI-8226, in the test on SF-539 and with SNB-19 was > 100 µM (inactive) throughout.
With `O=c1c2ccccc2[se]n1-c1cccnc1`, the GI50 in the test with 786-0 was 31.4 µM (inactive); in the test on BT-549 it was 31.3 µM (inactive); in the test with CAKI-1, 42.3 µM (inactive); with COLO 205, 20 µM (inactive); with HCC 2998 it was 11.4 µM (inactive); in the test on HCT-116, 30.5 µM (inactive). Also, the GI50 in the test on HCT-15 was 23.6 µM; in the test on HT-29, 43.8 µM (inactive); in the test with Hs-578T it was 20.1 µM (inactive); in the test with IGROV-1 it was 19.8 µM (inactive); in the test on MOLT-4, 31.3 µM (inactive); with NCI-H460 it was 53.6 µM (inactive). For the same compound, the GI50 was 20.7 µM (inactive) with NCI-H522; 29.1 µM (inactive) with OVCAR-3; 24.9 µM (inactive) with OVCAR-8; 34.5 µM (inactive) in the test with RPMI-8226; 21.9 µM (inactive) in the test on SF-539; 49.4 µM (inactive) in the test with SNB-19. In addition, in the test on UACC-62, the GI50 is 13 µM (inactive).
Turning to `O=C1Nc2ccc(Br)cc2/C1=N/S(=O)(=O)O`, the GI50 is 25.4 µM (inactive) with 786-0; 34.8 µM (inactive) with BT-549; 35.6 µM (inactive) in the test on CAKI-1; 6.85 µM (inactive) in the test with CCRF-CEM; 46.8 µM (inactive) with COLO 205; 51.3 µM (inactive) in the test on HCC 2998. In addition, the GI50 in the test with HCT-116 is 10.6 µM (inactive); in the test on HCT-15, 21.9 µM; with HT-29, 40.1 µM (inactive); with Hs-578T, > 100 µM (inactive); in the test with IGROV-1, 55.2 µM (inactive); in the test on MOLT-4 it was 22 µM (inactive). Moreover, the GI50 with NCI-H460 was 29 µM (inactive); in the test with NCI-H522, 31.3 µM (inactive); in the test on OVCAR-3, 40.7 µM (inactive); with OVCAR-8, 24.4 µM (inactive); in the test on RPMI-8226, 14.1 µM (inactive); in the test on SNB-19, > 100 µM (inactive). Further, in the test with UACC-62, the GI50 is 18.7 µM (inactive).
For the compound `O=c1c2cc(-c3ccccc3)sc2nc2n1N=C(c1ccc(Cl)cc1)CS2`, the GI50 in the test on 786-0, with BT-549, in the test with CAKI-1, in the test on CCRF-CEM, in the test with COLO 205 and in the test on HCC 2998 was > 100 µM (inactive) in each case. Moreover, the GI50 in the test on HCT-116 is > 100 µM (inactive); in the test with HCT-15 it was > 100 µM; in the test on HT-29, > 100 µM (inactive); in the test on Hs-578T, > 100 µM (inactive); with IGROV-1, > 100 µM (inactive); with MOLT-4, > 100 µM (inactive). Besides, the GI50 in the test with NCI-H460, with NCI-H522, with OVCAR-3, with OVCAR-8, with RPMI-8226 and with SF-539 was > 100 µM (inactive) each time. The GI50 with UACC-62 was > 100 µM (inactive).
Regarding `O=c1oc2ccccc2c(O)c1C1c2c(c3ccccc3oc2=O)Oc2c1c(=O)oc1ccccc21`, the GI50 in the test with 786-0 is 43.1 µM (inactive); in the test on BT-549, 27.5 µM (inactive); in the test on CAKI-1 it was 30.3 µM (inactive); in the test with CCRF-CEM, 36.5 µM (inactive); in the test on COLO 205 it was 42.3 µM (inactive); in the test on HCC 2998 it was 18.7 µM (inactive). Moreover, the GI50 is 36.6 µM (inactive) in the test on HCT-116; 27.9 µM in the test with HCT-15; 30.2 µM (inactive) with HT-29; 46.8 µM (inactive) with Hs-578T; 35 µM (inactive) in the test on IGROV-1; 47.5 µM (inactive) with MOLT-4. Moreover, the GI50 in the test on NCI-H460 is 17.1 µM (inactive); in the test with NCI-H522, 39 µM (inactive); with OVCAR-3, 61.8 µM (inactive); with OVCAR-8 it was 32.1 µM (inactive); in the test on RPMI-8226 it was 31.7 µM (inactive); in the test on SNB-19 it was 48.5 µM (inactive). The GI50 in the test on UACC-62 was 21.4 µM (inactive).
`CC1CC(Br)C(=O)O1` (stereo not given): the GI50 in the test with BT-549, in the test on CAKI-1, in the test on CCRF-CEM, in the test with COLO 205, in the test with HCC 2998 and in the test with HCT-116 was > 100 µM (inactive) each time. Besides, the GI50 was > 100 µM with HCT-15; > 100 µM (inactive) in the test on HT-29; > 100 µM (inactive) in the test with Hs-578T; > 100 µM (inactive) in the test with IGROV-1; > 100 µM (inactive) in the test on MOLT-4; > 100 µM (inactive) in the test on NCI-H460. Besides, the GI50 in the test with NCI-H522 was > 100 µM (inactive); with OVCAR-3 it was > 100 µM (inactive); in the test with OVCAR-8, > 100 µM (inactive); in the test with RPMI-8226 it was 38.6 µM (inactive); in the test on SF-539, > 100 µM (inactive); in the test on SNB-19 it was > 100 µM (inactive). For the same compound, the GI50 in the test with UACC-62 is > 100 µM (inactive).

The record behind these values is ChEMBL document CHEMBL1201862, “PubChem BioAssay data set” (2004).
